Assays:
Type in all cases: in vivo, Wistar rats
[1] = test system: calcium level in the serum; assay: Experiment 5: sucrose fatty acid ester with various organic acids, serum calcium reduction; details: for Reduction rate (%) of calcium level in the serum: intravaginal suppository 20 μg, rats
Experimental: (§1) An intravaginal suppository was administered into the rat's vagina, and the blood was collected periodically (2, 4 and 6 hours after administration of the test preparation).
(§2) The serum was separated, and the calcium level in the serum was determined by using a kit for determination of calcium (Calcium C Test Wako; manufactured by Wako Pure Chemical Industries, Ltd.) (n=3).
In the same manner as in Experiment 1, each intravaginal suppository was administered to the rat's vagina, and the blood was collected periodically (2, 4 and 6 hours after administration of intravaginal suppository), and the calcium level in the serum thereof was determined (n=5).

[2] = test system: calcium level in the serum; assay: Experiment 3: effects of various sucrose fatty acid esters on serum calcium reduction; details: for Reduction rate (%) of calcium level in the serum: rats
Experimental: as §1, §2
In the same manner, there were prepared various sucrose fatty acid esters having the same HLB value but being combined with a different fatty acid (Table B), and four kinds of intravaginal suppositories for rats were prepared by using each 100 mg of sucrose fatty acid ester.
In the same manner as in Experiment 1, each intravaginal suppository was administered to the rat's vagina, and the blood was collected periodically 2, 4 and 6 hours after administration of intravaginal suppository), and the calcium level in the serum thereof was determined (n=4).

[3] = test system: calcium level in the serum; assay: Experiment 4: effects of the concentration of sucrose fatty acid ester on serum calcium reduction; details: sucrose fatty acid ester 1, 2 or 8 w/w % with citric acid
Experimental: as §1, §2
Human calcitonin (2 mg) was precisely measured, and thereto were added citric acid (100 mg) and Ryoto-Sugar Ester S-970 (50 mg, 100 mg or 400 mg), and the mixture was mixed well.
In the same manner as in Experiment 1, each intravaginal suppository was administered to the rat's vagina, and the blood was collected periodically (2 and 4 hours after administration of intravaginal suppository), and the calcium level in the serum thereof was determined (n=3).

Human calcitonin
Reduction rate (%) of calcium level in the serum ([1]; organic acid: citric acid (pH 4) + Ryoto-Sugar Ester R-970, 2 hr): 11.4%
Reduction rate (%) of calcium level in the serum ([1]; organic acid: citric acid (pH 4) + Ryoto-Sugar Ester R-970, 4 hr): 19.6%
Reduction rate (%) of calcium level in the serum ([1]; organic acid: citric acid (pH 4) + Ryoto-Sugar Ester R-970, 6 hr): 8.4%
Reduction rate (%) of calcium level in the serum ([1]; organic acid: lactic acid (pH 4) + Ryoto-Sugar Ester R-970, 2 hr): 17.0%
Reduction rate (%) of calcium level in the serum ([1]; organic acid: lactic acid (pH 4) + Ryoto-Sugar Ester R-970, 4 hr): 10.6%
Reduction rate (%) of calcium level in the serum ([1]; organic acid: lactic acid (pH 4) + Ryoto-Sugar Ester R-970, 6 hr): 5.4%
Reduction rate (%) of calcium level in the serum ([1]; organic acid: malic acid (pH 4) + Ryoto-Sugar Ester R-970, 2 hr): 18.6%
Reduction rate (%) of calcium level in the serum ([1]; organic acid: malic acid (pH 4) + Ryoto-Sugar Ester R-970, 4 hr): 13.0%
Reduction rate (%) of calcium level in the serum ([1]; organic acid: malic acid (pH 4) + Ryoto-Sugar Ester R-970, 6 hr): 7.0%
Reduction rate (%) of calcium level in the serum ([1]; organic acid: tartaric acid (pH 4) + Ryoto-Sugar Ester R-970, 2 hr): 12.2%
Reduction rate (%) of calcium level in the serum ([1]; organic acid: tartaric acid (pH 4) + Ryoto-Sugar Ester R-970, 4 hr): 8.0%
Reduction rate (%) of calcium level in the serum ([1]; organic acid: tartaric acid (pH 4) + Ryoto-Sugar Ester R-970, 6 hr): 3.4%
calcium level ([1]; sucrose fatty acid ester with citric, tartaric, lactic or malic acid): significantly reduced regardless of any organic acid to be used
Reduction rate (%) of calcium level in the serum ([2]; Ryoto-Sugar Ester (L-1695), HLB 16, lauric acid, + citric acid, intravaginal suppository 20 μg, 2 hr): 12.8%
Reduction rate (%) of calcium level in the serum ([2]; Ryoto-Sugar Ester (L-1695), HLB 16, lauric acid, + citric acid, intravaginal suppository 20 μg, 4 hr): 13.4%
Reduction rate (%) of calcium level in the serum ([2]; Ryoto-Sugar Ester (L-1695), HLB 16, lauric acid, + citric acid, intravaginal suppository 20 μg, 6 hr): 11.4%
Reduction rate (%) of calcium level in the serum ([2]; Ryoto-Sugar Ester (S-370), HLB 3, stearic acid, + citric acid, intravaginal suppository 20 μg, 2 hr): 13.4%
Reduction rate (%) of calcium level in the serum ([2]; Ryoto-Sugar Ester (S-370), HLB 3, stearic acid, + citric acid, intravaginal suppository 20 μg, 4 hr): 18.2%
Reduction rate (%) of calcium level in the serum ([2]; Ryoto-Sugar Ester (S-370), HLB 3, stearic acid, + citric acid, intravaginal suppository 20 μg, 6 hr): 11.4%
Reduction rate (%) of calcium level in the serum ([2]; Ryoto-Sugar Ester (S-570), HLB 5, stearic acid, + citric acid, intravaginal suppository 20 μg, 2 hr): 12.8%
Reduction rate (%) of calcium level in the serum ([2]; Ryoto-Sugar Ester (S-570), HLB 5, stearic acid, + citric acid, intravaginal suppository 20 μg, 4 hr): 17.2%
Reduction rate (%) of calcium level in the serum ([2]; Ryoto-Sugar Ester (S-570), HLB 5, stearic acid, + citric acid, intravaginal suppository 20 μg, 6 hr): 12.0%
Reduction rate (%) of calcium level in the serum ([2]; Ryoto-Sugar Ester (S-770), HLB 7, stearic acid, + citric acid, intravaginal suppository 20 μg, 2 hr): 13.6%
Reduction rate (%) of calcium level in the serum ([2]; Ryoto-Sugar Ester (S-770), HLB 7, stearic acid, + citric acid, intravaginal suppository 20 μg, 4 hr): 14.8%
Reduction rate (%) of calcium level in the serum ([2]; Ryoto-Sugar Ester (S-770), HLB 7, stearic acid, + citric acid, intravaginal suppository 20 μg, 6 hr): 11.8%
Reduction rate (%) of calcium level in the serum ([2]; Ryoto-Sugar Ester (S-970), HLB 9, stearic acid, + citric acid (Table 3), intravaginal suppository 20 μg, 2 hr): 12.2%
Reduction rate (%) of calcium level in the serum ([2]; Ryoto-Sugar Ester (S-970), HLB 9, stearic acid, + citric acid (Table 3), intravaginal suppository 20 μg, 4 hr): 17.4%
Reduction rate (%) of calcium level in the serum ([2]; Ryoto-Sugar Ester (S-970), HLB 9, stearic acid, + citric acid (Table 3), intravaginal suppository 20 μg, 6 hr): 11.8%
Reduction rate (%) of calcium level in the serum ([2]; Ryoto-Sugar Ester (S-1670), HLB 16, stearic acid, + citric acid, intravaginal suppository 20 μg, 2 hr): 11.4%
Reduction rate (%) of calcium level in the serum ([2]; Ryoto-Sugar Ester (S-1670), HLB 16, stearic acid, + citric acid, intravaginal suppository 20 μg, 4 hr): 16.4%
Reduction rate (%) of calcium level in the serum ([2]; Ryoto-Sugar Ester (S-1670), HLB 16, stearic acid, + citric acid, intravaginal suppository 20 μg, 6 hr): 12.6%
Reduction rate (%) of calcium level in the serum ([2]; Ryoto-Sugar Ester L-595 + L-1695 3:2, HLB 9, lauric acid, + citric acid, intravaginal suppository, 2 hr): 11.0%
Reduction rate (%) of calcium level in the serum ([2]; Ryoto-Sugar Ester L-595 + L-1695 3:2, HLB 9, lauric acid, + citric acid, intravaginal suppository, 4 hr): 14.4%
Reduction rate (%) of calcium level in the serum ([2]; Ryoto-Sugar Ester L-595 + L-1695 3:2, HLB 9, lauric acid, + citric acid, intravaginal suppository, 6 hr): 9.7%
Reduction rate (%) of calcium level in the serum ([2]; Ryoto-Sugar Ester P-070 + P-1670 4:5, HLB 9, palmitic acid, + citric acid, intravaginal suppository, 2 hr): 8.2%
Reduction rate (%) of calcium level in the serum ([2]; Ryoto-Sugar Ester P-070 + P-1670 4:5, HLB 9, palmitic acid, + citric acid, intravaginal suppository, 4 hr): 17.3%
Reduction rate (%) of calcium level in the serum ([2]; Ryoto-Sugar Ester P-070 + P-1670 4:5, HLB 9, palmitic acid, + citric acid, intravaginal suppository, 6 hr): 13.8%
Reduction rate (%) of calcium level in the serum ([2]; Ryoto-Sugar Ester S-370 + S-1670 5:6, HLB 9, stearic acid, + citric acid, intravaginal suppository, 2 hr): 6.9%
Reduction rate (%) of calcium level in the serum ([2]; Ryoto-Sugar Ester S-370 + S-1670 5:6, HLB 9, stearic acid, + citric acid, intravaginal suppository, 4 hr): 15.3%
Reduction rate (%) of calcium level in the serum ([2]; Ryoto-Sugar Ester S-370 + S-1670 5:6, HLB 9, stearic acid, + citric acid, intravaginal suppository, 6 hr): 12.3%
Reduction rate (%) of calcium level in the serum ([2]; Ryoto-Sugar Ester S-970 1:0 (control of Table B), HLB 9, stearic acid, + citric acid (Table 4), intravaginal suppository, 2 hr): 6.3%
Reduction rate (%) of calcium level in the serum ([2]; Ryoto-Sugar Ester S-970 1:0 (control of Table B), HLB 9, stearic acid, + citric acid (Table 4), intravaginal suppository, 4 hr): 11.6%
Reduction rate (%) of calcium level in the serum ([2]; Ryoto-Sugar Ester S-970 1:0 (control of Table B), HLB 9, stearic acid, + citric acid (Table 4), intravaginal suppository, 6 hr): 11.0%
promotion effects on absorption of calcitonin ([2]; combination of sucrose fatty acid ester and citric acid, esters of different HLB value and fatty acid): not affected by either the HLB value of the sucrose fatty acid ester to be used or by the kinds of the fatty acids to be combined
calcium level in the blood [3]: reduced at any concentration of the sucrose fatty acid ester to be used

Source: patent US5776886A, “Intravaginal preparation containing physiologically active peptide” (Teikoku Seiyaku Kabushiki Kaisha, priority 1993, dated 1998)
